Data published in BindingDB's records for doi:10.1074/jbc.M109.067967 (University of Michigan, 2010).

Legend:
[1] = biological target: T1, Plasminogen activator inhibitor 1 (Homo sapiens, UniProt P05121); assay: Enzymatic Assay; settings: pH 7.8; 23 °C
[2] = biological target: Plasminogen activator inhibitor 1 (Mus musculus, UniProt P22777); assay: Enzymatic Assay; settings: pH 7.8; 23 °C
[3] = biological target: T1, Plasminogen activator inhibitor 1; assay: Enzyme activity assay using human and murine PAI-1.; settings: pH 7.8

Row | Compound | IC50 [1] [nM] | IC50 [2] [nM] | IC50 [3] [nM]
1 | O=C(O[C@@H]1Cc2c(O)cc(O)cc2O[C@@H]1c1cc(O)c(O)c(O)c1)c1cc(O)c(O)c(O)c1 [(-)-Epigallocatechin-3-o-gallate] | 91 | – | –
2 | O=C1c2ccc(O)c(O)c2C(=O)c2c(O)ccc(O)c21 [Quinalizarin, E] | 4400 | – | –
3 | O=C(OCC(COC(=O)c1cc(O)c(O)c(O)c1)OC(=O)c1cc(O)c(O)c(O)c1)c1cc(O)c(O)c(O)c1 [CDE-082] | – | 79 | 14
4 | O=C(O)c1cc(O)c2c(c1)[C@H]([C@H]1c3cc(C(=O)O)cc(O)c3C(=O)c3c(O[C@@H]4O[C@H](CO)[C@@H](O)[C@H](O)[C@H]4O)cccc31)c1cccc(O[C@@H]3O[C@H](CO)[C@@H](O)[C@H](O)[C@H]3O)c1C2=O [Sennoside A, G] | 51000 | – | –
5 | O=C(O)c1cc(O)c(O)c(O)c1 [Gallic Acid, F] | 6600 | – | –
6 | O=C(OCCOC(=O)c1cc(O)c(O)c(O)c1)c1cc(O)c(O)c(O)c1 [CDE-008] | – | 162 | 44
7 | O=C(Oc1cc(O)cc2c1C[C@@H](OC(=O)c1cc(O)c(O)c(O)c1)[C@@H](c1cc(O)c(O)c(O)c1)O2)c1cc(O)c(O)c(O)c1 [Epigallocatechin-3,5-Digallate, C] | 330 | – | –
8 | O=C(OCC1OC(OC(=O)c2cc(O)c(O)c(OC(=O)c3cc(O)c(O)c(O)c3)c2)C(OC(=O)c2cc(O)c(O)c(OC(=O)c3cc(O)c(O)c(O)c3)c2)C(OC(=O)c2cc(O)c(O)c(OC(=O)c3cc(O)c(O)c(O)c3)c2)C1OC(=O)c1cc(O)c(O)c(OC(=O)c2cc(O)c(O)c(O)c2)c1)c1cc(O)c(O)c(OC(=O)c2cc(O)c(O)c(O)c2)c1 (centres undefined) [Tannic Acid, A] | 7 | 4.1 | 6.6
9 | O=C(Oc1ccccc1OC(=O)c1cc(O)c(O)c(O)c1)c1cc(O)c(O)c(O)c1 [CDE-056] | – | 758 | 74
10 | O=C(O[C@@H]1CCCC[C@H]1OC(=O)c1cc(O)c(O)c(O)c1)c1cc(O)c(O)c(O)c1 [CDE-034] | – | 644 | 116
11 | O=C(O[C@H]1CCCC[C@H]1OC(=O)c1cc(O)c(O)c(O)c1)c1cc(O)c(O)c(O)c1 [CDE-031] | – | 132 | 20
12 | Oc1c(Cl)cc(Cl)c(Cl)c1Cc1c(O)c(Cl)cc(Cl)c1Cl [SMR000058356] | 3800 | – | –
